Results as given in ChEMBL document CHEMBL2385027, “Evaluation of 2'-α-fluorine modified nucleoside phosphonates as potential inhibitors of HCV polymerase” (Bioorg Med Chem Lett, 2013).

Columns and labels:
[1] = Cytotoxicity against human HuH7 cells; type: cell-based, Huh-7
Hepatitis C virus [2] = test: Antiviral activity against Hepatitis C virus infected in human Huh7 cells assessed as inhibition of HCV replication; type: functional, organism-based, Hepacivirus hominis; details: Huh-7
[3] = Cytostatic activity against human MT4 cells; type: cell-based
Hepatitis C virus [4] = test: Inhibition of HCV 1b NS5b polymerase; set-up: species or system Hepatitis C virus subtype 1b

| Compound | CC50 [1] | EC50 (Hepatitis C virus [2]) | CC50 [3] | IC50 (Hepatitis C virus [4]) |
| --- | --- | --- | --- | --- |
| Nc1ncnc2c1ncn2[C@@H]1O[C@H](COP(=O)(O)O)[C@@H](O)[C@H]1F | > 250 µM | 134 µM |  |  |
| O=c1ccn([C@@H]2O[C@H](COP(=O)(O)O)[C@@H](O)[C@H]2F)c(=O)[nH]1 | > 250 µM | > 250 µM |  |  |
| Nc1ccn([C@@H]2O[C@H](COP(=O)(O)O)[C@@H](O)[C@H]2F)c(=O)n1 | > 250 µM | 15 µM |  |  |
| Nc1ncnc2c1ncn2[C@@H]1O[C@H](/C=C/P(=O)(O)O)[C@@H](O)[C@H]1F [listing 1 of 2 here] | > 250 µM | 132 µM |  |  |
| O=c1ccn([C@@H]2O[C@H](/C=C/P(=O)(O)O)[C@@H](O)[C@H]2F)c(=O)[nH]1 [listing 1 of 2 here] | > 250 µM | > 250 µM |  |  |
| Nc1ccn([C@@H]2O[C@H](/C=C/P(=O)(O)O)[C@@H](O)[C@H]2F)c(=O)n1 [listing 1 of 2 here] | > 250 µM | 76 µM |  |  |
| Nc1ncnc2c1ncn2[C@@H]1O[C@H](CCP(=O)(O)O)[C@@H](O)[C@H]1F [listing 1 of 2 here] | > 500 µM | > 500 µM |  |  |
| CCCCOC(=O)[C@H](C)NP(=O)(/C=C/[C@H]1O[C@@H](n2cnc3c(N)ncnc32)[C@H](F)[C@@H]1O)N[C@@H](C)C(=O)OCCCC | 113 µM | 58 µM | 18 µM |  |
| CCCCOC(=O)[C@H](C)NP(=O)(/C=C/[C@H]1O[C@@H](n2ccc(=O)[nH]c2=O)[C@H](F)[C@@H]1O)N[C@@H](C)C(=O)OCCCC | > 250 µM | 14.5 µM | 92 µM |  |
| CCCCOC(=O)[C@H](C)NP(=O)(/C=C/[C@H]1O[C@@H](n2ccc(N)nc2=O)[C@H](F)[C@@H]1O)N[C@@H](C)C(=O)OCCCC | > 250 µM | 134 µM | > 250 µM |  |
| CCCCOC(=O)[C@H](C)NP(=O)(CC[C@H]1O[C@@H](n2cnc3c(N)ncnc32)[C@H](F)[C@@H]1O)N[C@@H](C)C(=O)OCCCC | 24 µM | 11 µM | 36 µM |  |
| O=c1ccn([C@@H]2O[C@H](CO)[C@@H](O)[C@H]2F)c(=O)[nH]1 |  |  |  | 12.8 µM |
| Nc1ncnc2c1ncn2[C@@H]1O[C@H](/C=C/P(=O)(O)O)[C@@H](O)[C@H]1F [listing 2 of 2 here] |  |  |  | 2.1 µM |
| O=c1ccn([C@@H]2O[C@H](/C=C/P(=O)(O)O)[C@@H](O)[C@H]2F)c(=O)[nH]1 [listing 2 of 2 here] |  |  |  | 31 µM |
| Nc1ccn([C@@H]2O[C@H](/C=C/P(=O)(O)O)[C@@H](O)[C@H]2F)c(=O)n1 [listing 2 of 2 here] |  |  |  | 1.9 µM |
| Nc1ncnc2c1ncn2[C@@H]1O[C@H](CCP(=O)(O)O)[C@@H](O)[C@H]1F [listing 2 of 2 here] |  |  |  | 4.6 µM |
| Nc1ccn([C@@H]2O[C@H](CO)[C@@H](O)[C@H]2F)c(=O)n1 |  |  |  | 1.85 µM |
| Nc1ncnc2c1ncn2[C@@H]1O[C@H](CO)[C@@H](O)[C@H]1F [2'-BETA-FLUORO-2',3'-DEOXYADENOSINE] |  |  |  | 102 µM |
